How the values were obtained:
[1] = Preparation and characterisation of mRNA-encapsulating lipid nanoparticle (encapsulation efficiency, particle size); format: physicochemical; conditions: LNP encapsulating Fluc mRNA; Lipid:DSPC:CHO-HP:M-DMG-2000 48:10:40.5:1.5
Method: A specified amount of Fluc mRNA stock solution, 0.2 M sodium acetate buffer, and DEPC water were added to a container, and mixed well to obtain a water phase;
The amino lipid compound of the present disclosure, a helper lipid, a structural lipid, and a PEG-lipid were separately dissolved in absolute ethanol to prepare respective solutions at concentrations of 20 mg/mL, 10 mg/mL, 20 mg/mL, and 25 mg/mL, respectively. The above four solutions were pipetted at a molar ratio of Lipid:DSPC:CHO—HP:M-DMG-2000 of 48:10:40.5:1.5, and mixed well to prepare an alcohol phase. • (2) Encapsulation: The water phase and the alcohol phase were injected into a microfluidic chip at a flow rate of water phase: alcohol phase=12 mL/min: 4 mL/min by using a microfluidic preparation instrument (MPE-L2), and encapsulation was carried out at a flow rate of water phase: alcohol phase=9 mL/min: 3 mL/min to obtain mRNA-encapsulating lipid nanoparticle (mRNA-LNP). • (3) Dialysis: The product of step (2) was loaded in a dialysis bag and placed in a Tris Buffer-8% sucrose solution for replacement to remove ingredients such as residual ethanol, unassembled lipids. Dialysis was conducted for 2 h with magnetic stirring at room temperature and under protection from light (dialysate was replaced every 1 hour). • (4) The product of step (3) was sterilized by passing through a […] microporous membrane, and then packaged.
Lipid nanoparticle formulations encapsulating Fluc mRNA were prepared, with a concentration of Fluc mRNA of 0.2 g/L, a mass ratio of Fluc mRNA to Lipid of 1:10, a particle size of 80-130 nm, and a encapsulation efficiency of 85% or higher.
The encapsulation efficiency of the lipid nanoparticle encapsulating luciferase mRNA (Fluc mRNA) with a representative amino lipid compound and the fluorescence expression intensity induced by the same are shown in Table 4, with the amino lipid compound 118 as a control. […]

Female BALB/c mice = experiment: Performance evaluation of in vivo delivery of Fluc mRNA lipid nanoparticle (IVIS, body and organs); conditions: Fluc mRNA LNP; for Liver (fluorescence expression intensity) / Spleen (fluorescence expression intensity): 75 μL IV; for Liver (fluorescence expression intensity) / Spleen (fluorescence expression intensity) / Total flux (fluorescence expression intensity) / (Spleen/Total Flux) * 100%: 6 hours after injection; for Liver (fluorescence expression intensity) / Spleen (fluorescence expression intensity) / Total flux (fluorescence expression intensity): IVIS; for Total flux (fluorescence expression intensity): 75 μL tail vein injection (IV); for (Spleen/Total Flux) * 100% / Multiple of spleen delivery/total delivery to amino lipid compound 118: IV; for Multiple of spleen delivery/total delivery to amino lipid compound 118: relative to amino lipid compound 118
Method: Animal preparation: Female BALB/c mice of 6-8 weeks old were selected and raised in an SPF grade breeding room. Animal testing was conducted in strict accordance with the guidelines of national health institutions and animal ethics requirements.
In vivo Delivery: prior to injection of the test LNP formulations, the LNP formulations were gently and repeatedly inverted to thoroughly mix the formulation samples. A corresponding amount of the formulation samples were aspirated with a 1 ml insulin syringe, and the LNP formulations were injected by tail vein injection (IV), with 3 mice in duplicate per formulation. Each mouse was injected with 75 μL of the luciferase mRNA (Fluc mRNA)-encapsulating lipid nanoparticle formulation prepared in Experimental Example 1.
6 hours after injection of LNP formulations, mice were injected with 200 μL D-Luciferin luciferase developing substrate (Catalog No. 122799; Manufacturer: Perkin Elmer). After the substrate was injected, the mice were anesthetized with isoflurane inhalation, and the injection time of luciferase developing substrate was recorded.
The encapsulation efficiency of the lipid nanoparticle encapsulating luciferase mRNA (Fluc mRNA) with a representative amino lipid compound and the fluorescence expression intensity induced by the same are shown in Table 4, with the amino lipid compound 118 as a control.
The multiple of spleen delivery/total delivery of fluorescence expression intensity induced by lipid nanoparticle encapsulating luciferase mRNA (Fluc mRNA) with a representative amino lipid compound to amino lipid compound 118 is shown in Table 5.

SMILES | Encapsulation efficiency [1] [%] | Liver (fluorescence expression intensity) (Female BALB/c mice) | Spleen (fluorescence expression intensity) (Female BALB/c mice) | Total flux (fluorescence expression intensity) (Female BALB/c mice) | (Spleen/Total Flux) * 100% (Female BALB/c mice) [%] | Multiple of spleen delivery/total delivery to amino lipid compound 118 (Female BALB/c mice)
CCCCCCCC(=O)N(CCCN(C)C)C(CCCCCCCCC(=O)OC(CCCCCC)CCCCCC)CCCCCCCCC(=O)OC(CCCCCC)CCCCCC [Compound 118, reference compound] | 90.53 | 1.88E+08 | 2.19E+06 | 6.46E+08 | 0.34 | 1.00
CCCCCCC(CCCCCC)OC(=O)CCCCCCCCC(CCCCCCCCC(=O)OC(CCCCCC)CCCCCC)OC(=O)N(CCCCC(=O)OC(C)CCC)CCCN(C)C (stereo not drawn) [Compound 303] | 93.23 | 8.58E+07 | 5.56E+06 | 6.41E+08 | 0.87 | 2.55
CCCCCCC(C)OC(=O)CN(CCCN(C)C)C(=O)OC(CCCCCCCCC(=O)OC(CCCCCC)CCCCCC)CCCCCCCCC(=O)OC(CCCCCC)CCCCCC (stereo not drawn) [Compound 337] | 92.38 | 6.49E+07 | 3.30E+06 | 3.58E+08 | 0.92 | 2.71
CCCCCCC(CCCCCC)OC(=O)CCCCCCCCC(CCCCCCCCC(=O)OC(CCCCCC)CCCCCC)OC(=O)N(CCCCC(=O)OC(CC)CC)CCCN(C)C [Compound 304] | 92.03 | 1.06E+08 | 1.48E+07 | 5.18E+08 | 2.86 | 8.40
CCCCCCC(CCCCCC)OC(=O)CCCCCCCCC(CCCCCCCCC(=O)OC(CCCCCC)CCCCCC)OC(=O)N(CCCCC(=O)OC(C)CCCC)CCCN(C)C (stereo not drawn) [Compound 305] | 90.70 | 9.19E+07 | 7.03E+06 | 6.71E+08 | 1.05 | 3.08
CCCCCCC(CCCCCC)OC(=O)CCCCCCCCC(CCCCCCCCC(=O)OC(CCCCCC)CCCCCC)OC(=O)N(CCCCCC(=O)OC(C)CC)CCCN(C)C (stereo not drawn) [Compound 298] | 92.85 | 3.32E+07 | 2.13E+06 | 2.61E+08 | 0.82 | 2.40
CCCCCCOC(=O)CCN(CCCN(C)C)C(=O)OC(CCCCCCCCC(=O)OCC(CCCC)CCCCCC)CCCCCCCCC(=O)OCC(CCCC)CCCCCC (stereo not drawn) [Compound 372] | 92.17 | 1.67E+08 | 8.59E+06 | 5.43E+08 | 1.58 | 4.65
CCCCCCC(CCCC)COC(=O)CCCCCCCCC(CCCCCCCCC(=O)OCC(CCCC)CCCCCC)OC(=O)N(CCCC(=O)OCCCCC)CCCN(C)C (stereo not drawn) [Compound 371] | 93.17 | 2.92E+08 | 2.36E+07 | 1.12E+09 | 2.11 | 6.20
CCCCCCC(CCCCCC)OC(=O)CCCCCCCCC(CCCCCCCCC(=O)OC(CCCCCC)CCCCCC)OC(=O)N(CCCN(C)C)CC(=O)OC(CC)CCCCC (stereo not drawn) [Compound 338] | 91.13 | 1.07E+08 | 3.20E+06 | 6.32E+08 | 0.51 | 1.49
CCCCCCCN(CCCN(C)C)C(=O)OC(CCCCCCCCC(=O)OC(CCCCCC)CCCCCC)CCCCCCCCC(=O)OC(CCCCCC)CCCCCC [Compound 110] | 90.82 | 5.83E+07 | 8.71E+05 | 2.44E+08 | 0.36 | 1.05
CCCCCCC(CCCCCC)OC(=O)CCCCCCCCC(CCCCCCCCC(=O)OC(CCCCCC)CCCCCC)OC(=O)N(CCCCC)CCCN(C)C [Compound 108] | 91.78 | 6.84E+07 | 1.02E+06 | 3.40E+08 | 0.30 | 0.88
CC/C=C\CCOC(=O)CCCN(CCCN(C)C)C(=O)OC(CCCCCCCCC(=O)OC(CCCCCC)CCCCCC)CCCCCCCCC(=O)OC(CCCCCC)CCCCCC [Compound 277] | 91.00 | 7.98E+07 | 8.42E+06 | 3.14E+08 | 2.68 | 7.89
CCCCCCC(CCCCCC)OC(=O)CCCCCCCCC(CCCCCCCCC(=O)OC(CCCCCC)CCCCCC)OC(=O)N(CCCCN1CCCC1)CC(=O)OCC [Compound 368] | 87.51 | 6.14E+07 | 1.25E+07 | 3.97E+08 | 3.15 | 9.26

Reference: patent publication US20250250227A1, “AMINO LIPID COMPOUND, PREPARATION METHOD THEREFOR, COMPOSITION THEREOF AND USE THEREOF” (SHENZHEN SHENXIN BIOTECHNOLOGY CO., LTD., priority 2022, published 2025)
